Reference: ChEMBL document CHEMBL1127222, “Protection of the peptide bond against -chymotrypsin by the prodrug approach” (Bioorg Med Chem Lett, 1993)

Assays:
Type in all cases: ADME
[1] = Half life period in the presence of alpha-chymotrypsin at the concentration of 0.5 mg/ml
[2] = Half life period in the presence of alpha-chymotrypsin at the concentration of 0.25 mg/ml
[3] = Half life period in buffer solution at pH 7.4: found to be stable
[4] = Half life period in the presence of alpha-chymotrypsin at the concentration of 1.0 mg/mL
[5] = Half life period in buffer solution at pH 7.4

| SMILES | half-life [1] [h] | half-life [2] [h] | T1/2 [3] | half-life [4] [h] | half-life [5] [h] |
| --- | --- | --- | --- | --- | --- |
| CC(=O)NC(Cc1ccccc1)C(=O)NCc1ccccc1 (stereo unspecified) | 7.5 | 15 | Stable | 3.9 | – |
| CC(=O)N(CO)C(Cc1ccccc1)C(N)=O (stereo unspecified) | 0.583 | 0.55 | – | 0.533 | 0.633 |
| CC(=O)NC(Cc1ccccc1)C(N)=O (stereo unspecified) | 4.9 | 9.6 | Stable | 2.3 | – |
| CC(=O)N(CO)C(Cc1ccccc1)C(=O)NCc1ccccc1 (stereo unspecified) | 1.07 | 1.08 | – | 1.05 | 1.05 |
